Source: PubChem BioAssay (NCI)
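Exposure lasted 48 hours, with cells grown in 96-well plates and compounds tested at five concentrations. TGI is the concentration that stops growth completely.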

Key:
Assay in all cases: inhibition of tumour cell growth, NCI panel, 48 h
[1] = system: PC-3 prostate
[2] = system: EKVX NSCLC
[3] = system: BT-549 breast
[4] = system: NCI-H23 lung
[5] = system: TK-10 renal
[6] = system: SK-MEL-28 melanoma
[7] = system: HOP-62 NSCLC
[8] = system: RPMI-8226 leukemia
[9] = system: MCF7 breast
[10] = system: UACC-62 melanoma
[11] = system: MDA-MB-435
[12] = system: HOP-92 NSCLC
[13] = system: HT29 colon
[14] = system: HS 578T breast
[15] = system: A498 renal
[16] = system: K-562 leukemia
[17] = system: SK-OV-3 ovarian
[18] = system: ACHN renal
[19] = system: HCT-116 colon
[20] = system: SR leukemia
[21] = system: 786-0 renal
[22] = system: SW-620 colon
[23] = system: SK-MEL-5 melanoma
[24] = system: SK-MEL-2 melanoma
[25] = system: T-47D breast
[26] = system: CAKI-1 renal
[27] = system: CCRF-CEM leukemia
[28] = system: MOLT-4 leukemia
[29] = system: NCI-H460 lung
[30] = system: SF-539 CNS
[31] = system: NCI/ADR-RES ovarian
[32] = system: UACC-257 melanoma
[33] = system: OVCAR-4 ovarian
[34] = system: HL-60(TB) leukemia
[35] = system: SNB-19 CNS
[36] = system: SNB-75 CNS
[37] = system: M14 melanoma
[38] = system: RXF 393 renal
[39] = system: KM12 colon
[40] = system: DU-145 prostate
[41] = system: NCI-H522 lung
[42] = system: IGROV1 ovarian
[43] = system: MDA-MB-231 breast
[44] = system: NCI-H226 lung
[45] = system: OVCAR-8 ovarian
[46] = system: SF-268 CNS
[47] = system: OVCAR-3 ovarian
[48] = system: LOX IMVI melanoma
[49] = system: UO-31 renal
[50] = system: A549 NSCLC
[51] = system: MDA-N
[52] = system: U251 CNS
[53] = system: OVCAR-5 ovarian
[54] = system: HCC-2998 colon
[55] = system: COLO 205 colon
[56] = system: SN12C renal
[57] = system: MALME-3M melanoma
[58] = system: HCT-15 colon
[59] = system: SF-295 CNS

## C=C(C(=O)OC)N1C(=O)CC(C)C1=O (stereo not drawn)
[1]
  TGI: 30.4 µM
[2]
  TGI: 29.9 µM
[3]
  TGI: 30.9 µM
[4]
  TGI: 33.5 µM
[5]
  TGI: 17.7 µM
[6]
  TGI: 23.1 µM
[7]
  TGI: 35.6 µM
[8]
  TGI: 12.7 µM
[9]
  TGI: 30.5 µM
[10]
  TGI: 29.6 µM
[11]
  TGI: 37.2 µM
[12]
  TGI: 3.98 µM
[13]
  TGI: 25.2 µM
[14]
  TGI: 71.2 µM
[15]
  TGI: 36.8 µM
[16]
  TGI: 12.8 µM
[17]
  TGI: 98.9 µM
[18]
  TGI: 7.51 µM
[19]
  TGI: 19.5 µM
[20]
  TGI: 6.9 µM
[21]
  TGI: 23.5 µM
[22]
  TGI: 25.5 µM
[23]
  TGI: 32.7 µM
[24]
  TGI: 33.9 µM
[25]
  TGI: 33.1 µM
[26]
  TGI: 4.38 µM
[27]
  TGI: 4.62 µM
[28]
  TGI: 10.7 µM
[29]
  TGI: 35.1 µM
[30]
  TGI: 36 µM
[31]
  TGI: 36 µM
[32]
  TGI: 25.8 µM
[33]
  TGI: 37.4 µM
[34]
  TGI: 3.78 µM
[35]
  TGI: 58.8 µM
[36]
  TGI: 36.2 µM
[37]
  TGI: 29.6 µM
[38]
  TGI: 26.1 µM
[39]
  TGI: 43.8 µM
[40]
  TGI: 29.8 µM
[41]
  TGI: 5.05 µM
[42]
  TGI: 31.5 µM
[43]
  TGI: 34.1 µM
[44]
  TGI: 70.3 µM
[45]
  TGI: 43.1 µM
[46]
  TGI: 36.4 µM
[47]
  TGI: 22.4 µM
[48]
  TGI: 19.1 µM
[49]
  TGI: 26.1 µM
[50]
  TGI: 44.2 µM
[51]
  TGI: 28.9 µM
[52]
  TGI: 35 µM
[53]
  TGI: 29.8 µM
[54]
  TGI: 31.4 µM
[55]
  TGI: 14.3 µM
[56]
  TGI: 31.1 µM
[57]
  TGI: 5 µM
[58]
  TGI: 23.6 µM
[59]
  TGI: > 72 µM

## CC1(C)Oc2ccccc2OC1O (stereo not drawn)
[1]
  TGI: > 100 µM
[2]
  TGI: > 100 µM
[3]
  TGI: > 100 µM
[4]
  TGI: > 100 µM
[5]
  TGI: > 100 µM
[6]
  TGI: > 100 µM
[7]
  TGI: > 100 µM
[8]
  TGI: > 100 µM
[9]
  TGI: > 100 µM
[10]
  TGI: > 100 µM
[11]
  TGI: > 100 µM
[12]
  TGI: > 100 µM
[13]
  TGI: > 100 µM
[14]
  TGI: > 100 µM
[15]
  TGI: > 100 µM
[16]
  TGI: > 100 µM
[17]
  TGI: > 100 µM
[18]
  TGI: > 100 µM
[19]
  TGI: > 100 µM
[20]
  TGI: > 100 µM
[21]
  TGI: > 100 µM
[22]
  TGI: > 100 µM
[23]
  TGI: > 100 µM
[24]
  TGI: > 100 µM
[25]
  TGI: > 100 µM
[26]
  TGI: > 100 µM
[27]
  TGI: > 100 µM
[28]
  TGI: > 100 µM
[29]
  TGI: > 100 µM
[30]
  TGI: > 100 µM
[31]
  TGI: > 100 µM
[32]
  TGI: > 100 µM
[33]
  TGI: > 100 µM
[34]
  TGI: > 100 µM
[35]
  TGI: > 100 µM
[36]
  TGI: > 100 µM
[37]
  TGI: > 100 µM
[38]
  TGI: > 100 µM
[39]
  TGI: > 100 µM
[40]
  TGI: > 100 µM
[41]
  TGI: > 100 µM
[42]
  TGI: > 100 µM
[43]
  TGI: > 100 µM
[44]
  TGI: > 100 µM
[45]
  TGI: > 100 µM
[46]
  TGI: > 100 µM
[47]
  TGI: > 100 µM
[48]
  TGI: > 100 µM
[49]
  TGI: > 100 µM
[50]
  TGI: > 100 µM
[51]
  TGI: > 100 µM
[52]
  TGI: > 100 µM
[53]
  TGI: > 100 µM
[54]
  TGI: > 100 µM
[55]
  TGI: > 100 µM
[56]
  TGI: > 100 µM
[57]
  TGI: > 100 µM
[58]
  TGI: > 100 µM
[59]
  TGI: > 100 µM
